Assay results reported in PMC5544777, “Kinetics and thermodynamics of the protein-ligand interactions in the riboflavin kinase activity of the FAD synthetase from Corynebacterium ammoniagenes” (Scientific Reports, 2017).
Several values for one entry are separate records, joined by “and”; a condition that tells them apart may be missing. Identical values can stand only once. Like-named read-outs stand apart in the source and are kept apart here.

What was measured:
[1] = target: T1, RFK module of CaFADS (Corynebacterium ammoniagenes, UniProt Q59263, L183M); assay: Steady-state RFK activity (HPLC quantification of flavins); type: biochemical; conditions: for type of inhibition of the RFK activity: Dixon, Cornish-Bowden and Lineweaver-Burk plots
T1 construct: a truncated CaFADS variant consisting in the isolated C-terminal RFK module; made in house; host or cells: E. coli BL21(DE3)
Procedure: In all cases, reactions were initiated by addition of the enzyme to a final concentration of ≈40 nM, which was followed by 1 min of incubation, and the reactions were stopped by boiling the samples at 100 °C for 5 min as previously described, [20]. The flavin composition of the supernatant was analyzed using an Alliance HPLC system (Waters) equipped with a 2707 autosampler and an HSST3 column (4.6 × 50 mm, […]; Waters) preceded by a precolumn (4.6 × 20 mm, […]; Waters) as previously described, [20]. […] All the experiments were carried out in triplicate.
Additionally, Dixon plots (1/(v 0/[e]) vs [I]) and Cornish-Bowden representations ([S]/(v 0/[e]) vs [I]) were used to reveal the type of inhibition, [43].

[2] = target: T1, RFK module of CaFADS; assay: Isothermal titration calorimetry of binary and ternary interactions; type: binding
Procedure: Isothermal titration calorimetry (ITC) experiments were performed to elucidate the order in which ligands bind to the enzyme, as well as the binding inhibition effects from the thermodynamic point of view. Experiments were carried out in an AutoITC200 (MicroCal) that was thermostated at 25 °C. […] Titrations with FLV ligands of mixtures that contained the enzyme prebound with the ANP ligand were also carried out, as well as ANP titrations of mixtures of the enzyme saturated with FLV ligands. In these experiments, the titration was performed by stepwise injecting the titrating ligand. Up to 19 injections of 2 μL each were added to the calorimetric sample cell and mixed at a stirring speed of 1000 r.p.m. Ligands and protein were dissolved in 20 mM PIPES, pH 7.0, either in the presence or absence of 0.8 mM MgCl2, and degassed prior to titration. The association constant (K a), the enthalpy change (ΔH) and the binding stoichiometry (N) were obtained through a nonlinear least squares regression of the data using a homemade model for one or two independent binding sites, which was implemented in Origin 7.0 (OriginLab) as previously described, [20]. The entropic contribution (-TΔS), the Gibbs free energy (ΔG) and the dissociation constant (K d) were obtained through essential thermodynamic equations.
Experiments were performed in triplicate.

[3] = Flavin photobleaching decay in the stopped-flow equipment; type: physicochemical; conditions: for photobleaching rate: flavin fluorescence decay during stopped-flow measurements, 25 °C, 0.8 mM MgCl2, pH 7.0; for rate of slow linear fluorescence decay (photobleaching range): flavin mixed with the RFK module without ANP, stopped-flow
Source text: Due to the deterioration that flavins undergo when they are exposed to light, we also evaluated the FLV photobleaching decay during measurements.

[4] = initial mixture RFK:FMN, 0.0 mM MgCl2
[5] = initial mixture RFK:FMN, 0.8 mM MgCl2
[6] = initial mixture RFK:RF, 0.0 mM MgCl2
[7] = initial mixture RFK:RF, 0.8 mM MgCl2
[8] = initial mixture RFK, 0.0 mM MgCl2
[9] = initial mixture RFK, 0.8 mM MgCl2
[10] = apparent, ATP varied, ~5 µM RF, [ADP] 20 μM
[11] = apparent, ATP varied, ~5 µM RF, [ADP] 50 μM
[12] = apparent, ATP varied, ~5 µM RF, [ADP] 90 μM
[13] = apparent, ATP varied, ~5 µM RF, [ADP] 170 μM
[14] = initial mixture RFK:ADP, 0.0 mM MgCl2
[15] = initial mixture RFK:ADP, 0.8 mM MgCl2
[16] = initial mixture RFK:ATP, 0.0 mM MgCl2
[17] = initial mixture RFK:ATP, 0.8 mM MgCl2
[18] = apparent, RF varied, saturating ATP, [FMN] 1 μM
[19] = apparent, RF varied, saturating ATP, [FMN] 2 μM
[20] = apparent, RF varied, saturating ATP, [FMN] 3 μM
[21] = apparent, RF varied, saturating ATP, [FMN] 5 μM

T1 sequence (Q59263 183-338 L183M): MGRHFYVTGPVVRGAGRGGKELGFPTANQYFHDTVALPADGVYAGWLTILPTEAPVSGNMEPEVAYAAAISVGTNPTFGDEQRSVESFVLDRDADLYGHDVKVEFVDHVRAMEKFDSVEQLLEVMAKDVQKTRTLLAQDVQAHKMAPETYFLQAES

With Nc1ncnc2c1ncn2[C@@H]1O[C@H](COP(=O)(O)OP(=O)(O)O)[C@@H](O)[C@H]1O [ADP] the “type of inhibition of the RFK activity” value [1] was “competitive inhibitor”, the Ki ([1]; global fit of Lineweaver-Burk equation, competitive inhibition, ~5 µM RF, read-out: KiADP) was 17 ± 3.3 µM and the “K m/K i ratio” value ([1]; product inhibitor potency, KmRF/KiFMN and KmATP/KiADP) was “≈ 2.4”. The “-TΔS” value [2, 4] was 9.3 kcal/mol, the ΔG [2, 4] was -6.6 kcal/mol and the ΔH [2, 4] was -15.9 kcal/mol. The Kd ([2]; initial mixture RFK:FMN, 0.0 mM MgCl2, read-out: Kd) was 14.8 µM, the “-TΔS” value [2, 5] was 1.8 kcal/mol and the ΔG [2, 5] was -8.5 kcal/mol. For the same compound, the ΔH [2, 5] was -10.3 kcal/mol, the Kd ([2]; initial mixture RFK:FMN, 0.8 mM MgCl2, read-out: Kd) was 0.6 µM and the “-TΔS” value [2, 6] was 25.4 kcal/mol. The ΔG [2, 6] was -6.5 kcal/mol, the ΔH [2, 6] was -31.8 kcal/mol and the Kd ([2]; initial mixture RFK:RF, 0.0 mM MgCl2, read-out: Kd) was 17.1 µM. For the same compound, the “-TΔS” value [2, 7] was 5.2 kcal/mol, the ΔG [2, 7] was -8.2 kcal/mol and the ΔH [2, 7] was -13.4 kcal/mol. The Kd ([2]; initial mixture RFK:RF, 0.8 mM MgCl2, read-out: Kd) was 1 µM, the “-TΔS” value [2, 8] was 0.6 kcal/mol and the ΔG [2, 8] was -5.8 kcal/mol. The ΔH [2, 8] was -6.4 kcal/mol, the Kd ([2]; initial mixture RFK, 0.0 mM MgCl2, 20 mM PIPES, pH 7.0, 25 °C, read-out: Kd) was 51.4 µM and the “-TΔS” value [2, 9] was 3.5 kcal/mol. The ΔG [2, 9] was -6.4 kcal/mol, the ΔH [2, 9] was -9.8 kcal/mol and the Kd ([2]; initial mixture RFK, 0.8 mM MgCl2, 20 mM PIPES, pH 7.0, 25 °C, read-out: Kd) was 22.1 µM.
Compound Nc1ncnc2c1ncn2[C@@H]1O[C@H](COP(=O)(O)OP(=O)(O)OP(=O)(O)O)[C@@H](O)[C@H]1O [ATP] has a KmATP ([1]; apparent, ATP varied, ~5 µM RF, [ADP] 0 μM, 25 °C, 0.8 mM MgCl2, pH 7.0) of 60 ± 11 µM, a k cat ([1]; apparent, ATP varied, ~5 µM RF, [ADP] 0 μM, 25 °C, 20 mM PIPES, 0.8 mM MgCl2, pH 7.0) of 2.67 ± 0.167 s⁻¹ and a KmATP [1, 10] of 110 ± 20 µM. It also gave a k cat [1, 10] of 2.67 ± 0.167 s⁻¹, a KmATP [1, 11] of 140 ± 20 µM and a k cat [1, 11] of 2.33 ± 0.167 s⁻¹. For the same compound, the KmATP [1, 12] was 260 ± 20 µM, the k cat [1, 12] was 2.83 ± 0.167 s⁻¹ and the KmATP [1, 13] was 700 ± 270 µM. The k cat [1, 13] was 2.83 ± 1 s⁻¹, the k cat ([1]; global fit of Lineweaver-Burk equation, competitive inhibition by ADP, ATP varied, ~5 µM RF) was 2.17 ± 0.5 s⁻¹ and the KmATP ([1]; global fit of Lineweaver-Burk equation, competitive inhibition by ADP, ~5 µM RF) was 40 ± 20 µM and 40 ± 12 µM. The “-TΔS” value [2, 4] was 9.3 kcal/mol, the ΔH [2, 4] was -17.9 kcal/mol and the “-TΔS” value [2, 5] was 9.3 kcal/mol. For the same compound, the ΔH [2, 5] was -19.5 kcal/mol, the “-TΔS” value [2, 6] was 66.6 kcal/mol and the ΔH [2, 6] was -72.5 kcal/mol. The “-TΔS” value [2, 8] was -1.0 kcal/mol, the ΔH [2, 8] was -5.5 kcal/mol and the “-TΔS” value [2, 9] was -0.6 kcal/mol. It also gave a ΔG [2, 9] of -6.1 kcal/mol and a ΔH [2, 9] of -5.6 kcal/mol.
With Cc1cc2nc3c(=O)[nH]c(=O)nc-3n(C[C@H](O)[C@H](O)[C@H](O)COP(=O)(O)O)c2cc1C [FMN, flavin mononucleotide] the photobleaching rate [3] was 0.0041 ± 0.00018 min⁻¹, the “rate of slow linear fluorescence decay (photobleaching range)” value [3] was 0.0041 ± 0.00024 min⁻¹ and the “type of inhibition of the RFK activity” value [1] was “uncompetitive inhibitor”. The “interaction with the RFK module on titration with the individual ligand” value ([2]; ITC thermograms, free RFK module, titrated at different temperatures) was “does not interact or interacts with undetectable ΔCp”, the “-TΔS” value [2, 14] was 10.6 kcal/mol and the ΔG [2, 14] was -7.1 kcal/mol. For the same compound, the ΔH [2, 14] was -17.7 kcal/mol, the “-TΔS” value [2, 15] was -1.9 kcal/mol and the ΔG [2, 15] was -8.4 kcal/mol. The ΔH [2, 15] was -6.4 kcal/mol, the “-TΔS” value [2, 16] was 15.4 kcal/mol and the ΔG [2, 16] was -6.3 kcal/mol. For the same compound, the ΔH [2, 16] was -21.7 kcal/mol, the “-TΔS” value [2, 17] was -0.2 kcal/mol and the ΔG [2, 17] was -7.1 kcal/mol. It also gave a ΔH [2, 17] of -6.9 kcal/mol.
With Cc1cc2nc3c(=O)[nH]c(=O)nc-3n(C[C@H](O)[C@H](O)[C@H](O)CO)c2cc1C [RF, riboflavin] the photobleaching rate [3] was 0.0046 ± 0.00018 min⁻¹, the “rate of slow linear fluorescence decay (photobleaching range)” value [3] was 0.0045 ± 0.00012 min⁻¹ and the Ki [1] was 1.9 ± 0.2 µM. It also gave a KmRF ([1]; apparent, RF varied, saturating ATP, [FMN] 0 μM) of 10 ± 2 µM, a k cat ([1]; apparent, RF varied, saturating ATP, [FMN] 0 μM, substrate inhibition model, 25 °C, 0.8 mM MgCl2, pH 7.0) of 7.33 ± 0.833 s⁻¹ and a KmRF [1, 18] of 5.0 ± 1.1 µM. The k cat [1, 18] was 4.67 ± 0.667 s⁻¹, the KmRF [1, 19] was 7.7 ± 1.4 µM and the k cat [1, 19] was 4.5 ± 0.833 s⁻¹. For the same compound, the KmRF [1, 20] was 3.6 ± 0.9 µM, the k cat [1, 20] was 2.33 ± 0.5 s⁻¹ and the KmRF [1, 21] was 5.5 ± 2.1 µM. For the same compound, the k cat [1, 21] was 2 ± 0.667 s⁻¹, the k cat ([1]; global fit of Lineweaver-Burk equation, uncompetitive inhibition by FMN, RF varied, saturating ATP) was 5.33 ± 0.667 s⁻¹ and 5.33 ± 0.5 s⁻¹ and the KmRF ([1]; global fit of Lineweaver-Burk equation, uncompetitive inhibition by FMN, saturating ATP) was 6.9 ± 0.4 µM. The Kd ([2]; Kd, initial mixture RFK:ADP, 0.0 mM MgCl2) was 14.5 µM, the Kd ([2]; Kd, initial mixture RFK:ADP, 0.8 mM MgCl2) was 2.3 µM and the Kd ([2]; Kd, initial mixture RFK, 0.8 mM MgCl2, 20 mM PIPES, pH 7.0, 25 °C) was 15.2 µM. For the same compound, the “-TΔS” value [2, 14] was 67.7 kcal/mol, the ΔG [2, 14] was -6.6 kcal/mol and the ΔH [2, 14] was -74.3 kcal/mol. For the same compound, the “-TΔS” value [2, 15] was 11.5 kcal/mol, the ΔG [2, 15] was -7.6 kcal/mol and the ΔH [2, 15] was -19.2 kcal/mol. For the same compound, the Kd [2, 16] was “does not bind”, the “-TΔS” value [2, 8] was -0.9 kcal/mol and the ΔG [2, 8] was -6.9 kcal/mol. For the same compound, the ΔH [2, 8] was -5.9 kcal/mol, the “-TΔS” value [2, 9] was 4.1 kcal/mol and the ΔG [2, 9] was -6.6 kcal/mol. The ΔH [2, 9] was -10.6 kcal/mol.
